Measured values reported in patent US20060069132A1, “Azolecarboxamide herbicides” (priority 2004, published 2006).

Tests used:
ducksalad = experiment: Test B flooded paddy test; format: in vivo, Heteranthera limosa; conditions: 1000 g ai/ha, scale 0 to 100 (0 no effect, 100 complete control)
How it was run: (§1)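 Postemergence plants were sprayed with formulated test chemicals at 2 to 18 cm height (1- to 4-leaf stage); paddy species were grown to the 2-leaf stage. After 13 to 15 days in a greenhouse, injury was rated visually against untreated controls on a 0–100 scale (0 = no effect, 100 = complete control).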

barnyardgrass = experiment: Test B flooded paddy test; format: in vivo, Echinochloa crus-galli; conditions: 1000 g ai/ha, scale 0 to 100 (0 no effect, 100 complete control)
How it was run: as §1

rice = experiment: Test B flooded paddy test; format: in vivo, Oryza sativa; conditions: 1000 g ai/ha, scale 0 to 100 (0 no effect, 100 complete control)
How it was run: as §1

blackgrass = experiment: Test B postemergence herbicide test; format: in vivo, Alopecurus myosuroides
How it was run: as §1

cocklebur = experiment: Test B pre-/postemergence herbicide test; format: in vivo, Xanthium strumarium
How it was run: (§2)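 Seeds were planted and treated preemergence with compounds formulated in a non-phytotoxic solvent mixture containing surfactant, while plants at the 1- to 4-leaf stage (2 to 18 cm) received postemergence sprays. Flooded paddy plants were grown to the 2-leaf stage. After 13 to 15 days in a greenhouse, injury was visually rated 0–100 against untreated controls.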

wild oat = experiment: Test B postemergence herbicide test; format: in vivo, Avena fatua; conditions: scale 0 (no effect) to 100 (complete control); for Plant response rating, Oat, Wild: visual rating after 13 to 15 days
How it was run: (§3)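 Each value is a visual 0–100 response rating taken against controls 13 to 15 days after treatment in the greenhouse. Plants received formulated chemical postemergence at the 1- to 4-leaf stage or, in flooded paddy, at the 2-leaf stage.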

pigweed = experiment: Test B pre-/postemergence herbicide test; format: in vivo, Amaranthus retroflexus
How it was run: (§4)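 Response was scored visually 13 to 15 days after treatment against untreated greenhouse controls, 0 meaning no effect and 100 complete control. Formulations (solvent mixture plus surfactant) went onto soil after planting, onto foliage of 1- to 4-leaf plants, and onto 2-leaf plants in a flooded paddy set including rice and barnyardgrass.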

morningglory = experiment: Test B pre-/postemergence herbicide test; format: in vivo, Ipomoea coccinea
How it was run: as §2

velvetleaf = experiment: Test B pre-/postemergence herbicide test; format: in vivo, Abutilon theophrasti
How it was run: as §4

[1] = system: small flower umbrella sedge; experiment: Test B flooded paddy test; format: in vivo, Cyperus difformis; conditions: 1000 g ai/ha, scale 0 to 100 (0 no effect, 100 complete control)
How it was run: as §1

lambsquarters = experiment: Test B pre-/postemergence herbicide test; format: in vivo, Chenopodium album
How it was run: as §4

corn = experiment: Test B pre-/postemergence herbicide test; format: in vivo, Zea mays
How it was run: as §4

giant foxtail = experiment: Test B pre-/postemergence herbicide test; format: in vivo, Setaria faberi
How it was run: as §4

wheat = experiment: Test B postemergence herbicide test; format: in vivo, Triticum aestivum; set-up: key to Wheat plant response rating: 0 = no effect, 100 = complete control; conditions: for Plant response rating, Wheat: visual rating after 13 to 15 days
How it was run: as §3

Surinam grass = experiment: Test B pre-/postemergence herbicide test; format: in vivo, Urochloa decumbens
How it was run: as §4

[2] = Postemergence, 500 g ai/ha; visual rating after 13 to 15 days, scale 0 (no effect) to 100 (complete control)
[3] = postemergence, 125 g ai/ha; visual rating, scale 0 (no effect) to 100 (complete control)
[4] = 500 g ai/ha, visual rating 0-100, 0 no effect, 100 complete control, preemergence
[5] = Postemergence, 500 g ai/ha, visual rating after 13 to 15 days, scale 0 (no effect) to 100 (complete control)
[6] = postemergence, 125 g ai/ha, visual rating, scale 0 (no effect) to 100 (complete control)
[7] = preemergence, 125 g ai/ha, 0 to 100 scale, 0 is no effect, 100 is complete control
[8] = postemergence, 125 g ai/ha, visual rating
[9] = Postemergence, 500 g ai/ha, scale 0 (no effect) to 100 (complete control)
[10] = 125 g ai/ha, 0 is no effect, 100 is complete control, preemergence
[11] = 125 g ai/ha, visual rating, scale 0 (no effect) to 100 (complete control), postemergence
[12] = postemergence, 500 g ai/ha, scale 0 to 100, 0 is no effect, 100 is complete control
[13] = Preemergence, 500 g ai/ha, scale 0 to 100
[14] = postemergence, 500 g ai/ha, visual rating, scale 0 (no effect) to 100 (complete control)

SMILES: CCOC(=O)c1cc(NC(=O)c2cc(C(C)(C)C)nn2CC)ccc1OCC [Compound 95]
- Ducksalad plant response rating (ducksalad; visual rating, 13 to 15 days): 80
- Barnyardgrass plant response rating (barnyardgrass; visual rating, 13 to 15 days): 50
- Rice plant response rating (rice; visual rating, 13 to 15 days): 60
- Plant response rating, Blackgrass (blackgrass; [2]): 0
- Blackgrass plant response rating (blackgrass; [3]): 0
- Plant response rating, Cocklebur (cocklebur; [4]): 0
- Plant response rating, Cocklebur (cocklebur; [5]): 70
- Cocklebur plant response rating (cocklebur; [6]): 60
- Plant response rating, Cocklebur (cocklebur; [7]): 0
- Plant response rating, Oat, Wild (wild oat; Postemergence, 500 g ai/ha): 20
- Oat, Wild plant response rating (wild oat; [8]): 10
- Plant response rating, Pigweed (pigweed; [4]): 100
- Plant response rating, Pigweed (pigweed; [5]): 100
- Pigweed plant response rating (pigweed; [6]): 90
- Plant response rating, Pigweed (pigweed; [7]): 100
- Plant response rating, Morningglory (morningglory; [5]): 60
- Morningglory plant response rating (morningglory; [6]): 0
- Plant response rating, Morningglory (morningglory; [7]): 10
- Plant response rating, Velvetleaf (velvetleaf; [4]): 60
- Plant response rating, Velvetleaf (velvetleaf; [5]): 60
- Velvetleaf plant response rating (velvetleaf; [6]): 50
- Plant response rating, Velvetleaf (velvetleaf; [7]): 0
- Sedge, Umbrella plant response rating ([1]; visual rating, 13 to 15 days): 80
- Plant response rating, Lambsquarters (lambsquarters; [4]): 100
- Plant response rating, Lambsquarters (lambsquarters; [5]): 100
- Lambsquarters plant response rating (lambsquarters; [6]): 100
- Plant response rating, Lambsquarters (lambsquarters; [7]): 100
- Plant response rating, Corn (corn; [4]): 60
- Plant response rating, Corn (corn; [5]): 10
- Corn plant response rating (corn; [6]): 10
- Plant response rating, Corn (corn; [7]): 60
- Plant response rating, Foxtail, Giant (giant foxtail; [4]): 100
- Plant response rating, Foxtail, Giant (giant foxtail; [5]): 30
- Foxtail, Giant plant response rating (giant foxtail; [6]): 10
- Plant response rating, Foxtail, Giant (giant foxtail; [7]): 50
- Plant response rating, Wheat (wheat; [9]): 10
- Wheat plant response rating (wheat; [6]): 10
- Plant response rating, Surinam Grass (Surinam grass; [4]): 70
- Plant response rating, Surinam Grass (Surinam grass; [5]): 20
- Surinam Grass plant response rating (Surinam grass; [6]): 20
- Plant response rating, Surinam Grass (Surinam grass; [7]): 20

SMILES: CCc1nn(C(C)C)nc1C(=O)Nc1cccc(C(=O)N(C)CC)c1 [Compound 386]
- Ducksalad plant response rating (ducksalad): 90
- Barnyardgrass plant response rating (barnyardgrass): 90
- Rice plant response rating (rice): 80
- Blackgrass plant response rating (blackgrass; 125 g ai/ha; visual rating, scale 0 (no effect) to 100 (complete control); postemergence): 0
- Blackgrass plant response rating (blackgrass; postemergence, 500 g ai/ha; scale 0 to 100, 0 is no effect, 100 is complete control): 40
- Plant response rating (0 to 100 scale), Cocklebur (cocklebur; [10]): 20
- Cocklebur plant response rating (cocklebur; [11]): 40
- Cocklebur plant response rating (cocklebur; [12]): 50
- Oat, Wild plant response rating (wild oat; 125 g ai/ha, visual rating, postemergence): 0
- Oat, Wild plant response rating (wild oat; Postemergence, 500 g ai/ha): 0
- Plant response rating (0 to 100 scale), Pigweed (pigweed; [10]): 100
- Pigweed plant response rating (pigweed; [11]): 50
- Pigweed plant response rating (pigweed; [9]): 60
- Plant response rating (0 to 100 scale), Morningglory (morningglory; [10]): 50
- Morningglory plant response rating (morningglory; [11]): 20
- Morningglory plant response rating (morningglory; [9]): 20
- Plant response rating (0 to 100 scale), Velvetleaf (velvetleaf; [10]): 60
- Velvetleaf plant response rating (velvetleaf; [11]): 40
- Velvetleaf plant response rating (velvetleaf; [9]): 50
- Sedge, Umbrella plant response rating [1]: 80
- Plant response rating (0 to 100 scale), Lambsquarters (lambsquarters; [10]): 100
- Lambsquarters plant response rating (lambsquarters; [11]): 30
- Lambsquarters plant response rating (lambsquarters; [9]): 60
- Plant response rating (0 to 100 scale), Corn (corn; [10]): 40
- Corn plant response rating (corn; [11]): 0
- Corn plant response rating (corn; [12]): 10
- Plant response rating (0 to 100 scale), Foxtail, Giant (giant foxtail; [10]): 90
- Foxtail, Giant plant response rating (giant foxtail; [11]): 20
- Foxtail, Giant plant response rating (giant foxtail; [12]): 20
- Wheat plant response rating (wheat; [11]): 0
- Wheat plant response rating (wheat; 500 g ai/ha, scale 0 to 100, 0 no effect, 100 complete control, preemergence): 100
- Wheat plant response rating (wheat; [9]): 0
- Plant response rating (0 to 100 scale), Surinam Grass (Surinam grass; [10]): 80
- Surinam Grass plant response rating (Surinam grass; [11]): 10
- Surinam Grass plant response rating (Surinam grass; [9]): 10

SMILES: C=CCn1nc(C(C)(C)C)cc1C(=O)Nc1cccc(C(=O)NCC)c1 [Compound 56]
- Ducksalad plant response rating (ducksalad; visual rating, 13 to 15 days): 80
- Barnyardgrass plant response rating (barnyardgrass; visual rating, 13 to 15 days): 80
- Rice plant response rating (rice; visual rating, 13 to 15 days): 70
- Plant response rating, Blackgrass (blackgrass; [2]): 10
- Blackgrass plant response rating (blackgrass; [3]): 0
- Plant response rating, Cocklebur (cocklebur; [5]): 80
- Cocklebur plant response rating (cocklebur; [13]): 20
- Cocklebur plant response rating (cocklebur; [6]): 80
- Plant response rating, Cocklebur (cocklebur; [7]): 0
- Plant response rating, Oat, Wild (wild oat; Postemergence, 500 g ai/ha): 20
- Oat, Wild plant response rating (wild oat; [8]): 20
- Plant response rating, Pigweed (pigweed; [5]): 90
- Pigweed plant response rating (pigweed; [13]): 100
- Pigweed plant response rating (pigweed; [6]): 60
- Plant response rating, Pigweed (pigweed; [7]): 30
- Plant response rating, Morningglory (morningglory; [5]): 20
- Morningglory plant response rating (morningglory; [13]): 20
- Morningglory plant response rating (morningglory; [6]): 0
- Plant response rating, Morningglory (morningglory; [7]): 20
- Plant response rating, Velvetleaf (velvetleaf; [5]): 50
- Velvetleaf plant response rating (velvetleaf; [13]): 100
- Velvetleaf plant response rating (velvetleaf; [6]): 40
- Plant response rating, Velvetleaf (velvetleaf; [7]): 0
- Sedge, Umbrella plant response rating ([1]; visual rating, 13 to 15 days): 80
- Plant response rating, Lambsquarters (lambsquarters; [5]): 90
- Lambsquarters plant response rating (lambsquarters; [13]): 100
- Lambsquarters plant response rating (lambsquarters; [6]): 80
- Plant response rating, Lambsquarters (lambsquarters; [7]): 100
- Plant response rating, Corn (corn; [5]): 30
- Corn plant response rating (corn; [13]): 20
- Corn plant response rating (corn; [6]): 20
- Plant response rating, Corn (corn; [7]): 0
- Plant response rating, Foxtail, Giant (giant foxtail; [5]): 20
- Foxtail, Giant plant response rating (giant foxtail; [13]): 100
- Foxtail, Giant plant response rating (giant foxtail; [6]): 20
- Plant response rating, Foxtail, Giant (giant foxtail; [7]): 60
- Plant response rating, Wheat (wheat; [9]): 20
- Wheat plant response rating (wheat; [6]): 10
- Plant response rating, Surinam Grass (Surinam grass; [5]): 30
- Surinam Grass plant response rating (Surinam grass; [13]): 60
- Surinam Grass plant response rating (Surinam grass; [6]): 20
- Plant response rating, Surinam Grass (Surinam grass; [7]): 30

SMILES: CC(=O)c1cccc(NC(=O)c2cc(C(C)(C)C)nn2CCF)c1 [Compound 128]
- Ducksalad plant response rating (ducksalad; visual rating, 13 to 15 days): 90
- Barnyardgrass plant response rating (barnyardgrass; visual rating, 13 to 15 days): 70
- Rice plant response rating (rice; visual rating, 13 to 15 days): 60
- Blackgrass plant response rating (blackgrass; [3]): 10
- Blackgrass plant response rating (blackgrass; postemergence, 500 g ai/ha; visual rating, scale 0 (no effect) to 100 (complete control)): 10
- Plant response rating, Cocklebur (cocklebur; [4]): 20
- Cocklebur plant response rating (cocklebur; [6]): 90
- Cocklebur plant response rating (cocklebur; [14]): 100
- Plant response rating, Cocklebur (cocklebur; [7]): 20
- Oat, Wild plant response rating (wild oat; [8]): 10
- Oat, Wild plant response rating (wild oat; postemergence, 500 g ai/ha, visual rating): 10
- Plant response rating, Pigweed (pigweed; [4]): 80
- Pigweed plant response rating (pigweed; [6]): 20
- Pigweed plant response rating (pigweed; [14]): 60
- Plant response rating, Pigweed (pigweed; [7]): 50
- Plant response rating, Morningglory (morningglory; [4]): 30
- Plant response rating, Morningglory (morningglory; [7]): 20
- Plant response rating, Velvetleaf (velvetleaf; [4]): 80
- Velvetleaf plant response rating (velvetleaf; [6]): 50
- Velvetleaf plant response rating (velvetleaf; [14]): 60
- Plant response rating, Velvetleaf (velvetleaf; [7]): 70
- Sedge, Umbrella plant response rating ([1]; visual rating, 13 to 15 days): 90
- Plant response rating, Lambsquarters (lambsquarters; [4]): 70
- Lambsquarters plant response rating (lambsquarters; [6]): 0
- Lambsquarters plant response rating (lambsquarters; [14]): 60
- Plant response rating, Lambsquarters (lambsquarters; [7]): 0
- Plant response rating, Corn (corn; [4]): 20
- Plant response rating, Corn (corn; [7]): 0
- Plant response rating, Foxtail, Giant (giant foxtail; [4]): 60
- Foxtail, Giant plant response rating (giant foxtail; [6]): 20
- Foxtail, Giant plant response rating (giant foxtail; [14]): 20
- Plant response rating, Foxtail, Giant (giant foxtail; [7]): 40
- Wheat plant response rating (wheat; [6]): 0
- Wheat plant response rating (wheat; [14]): 20
- Plant response rating, Surinam Grass (Surinam grass; [4]): 60
- Surinam Grass plant response rating (Surinam grass; [6]): 10
- Surinam Grass plant response rating (Surinam grass; [14]): 20
- Plant response rating, Surinam Grass (Surinam grass; [7]): 40
